Measured values taken from ChEMBL document CHEMBL3044932, “In vitro cytotoxicity evaluation of diversely substituted N-aryl-2-oxindoles” (2013).
≈ marks a conversion by molar mass, not a printed value.

Experiments:
Assay type in all cases: functional
MIA PaCa-2 = assay: Cytotoxicity against Homo sapiens (human) MIAPaCa2 cells after 72 hr by MTT assay; conditions: MIA PaCa-2, 72 h, read-out: ED50 (the source's name)
B16-F10 = assay: Cytotoxicity against Homo sapiens (human) B16F10 cells after 72 hr by MTT assay; conditions: Mus musculus, B16-F10, 72 h; read-out: ED50 (the source's name)
L132 = assay: Cytotoxicity against Homo sapiens (human) L-132 cells after 72 hr by MTT assay; conditions: L132, 72 h, read-out: ED50 (the source's name)
KB = assay: Cytotoxicity against Homo sapiens (human) KB cells after 72 hr by MTT assay; conditions: read-out: ED50 (the source's name)
MCF7 = assay: Cytotoxicity against Homo sapiens (human) MCF7 cells after 72 hr by MTT assay; conditions: MCF7, 72 h, read-out: ED50 (the source's name)
MOLT-4 = assay: Cytotoxicity against Homo sapiens (human) MOLT4 cells after 72 hr by MTT assay; conditions: MOLT-4, 72 h, read-out: ED50 (the source's name)
HuTu80 = assay: Cytotoxicity against Homo sapiens (human) HuTu 80 cells after 72 hr by MTT assay; conditions: HuTu80, 72 h, read-out: ED50 (the source's name)

Compound | EC50 (MIA PaCa-2) | EC50 (B16-F10) | EC50 (L132) | EC50 (KB) | EC50 (MCF7) | EC50 (MOLT-4) | EC50 (HuTu80)
O=C1/C(=C\c2ccccc2)c2ccccc2N1c1c(Cl)cccc1Cl | > 100 µg/mL | 9 µg/mL (≈ 24.6 µM) | > 100 µg/mL | 10 µg/mL (≈ 27.3 µM) | 10 µg/mL (≈ 27.3 µM) | 7 µg/mL (≈ 19.1 µM) | 8 µg/mL (≈ 21.8 µM)
Cc1ccc2nc(Cl)c(/C=C3\C(=O)N(c4c(Cl)cccc4Cl)c4ccccc43)cc2c1C |  | > 100 µg/mL | 98 µg/mL (≈ 204 µM) | 10 µg/mL (≈ 20.8 µM) | > 100 µg/mL |  | < 1 µg/mL
O=C1/C(=C\c2cccc(Cl)c2)c2ccccc2N1c1c(Cl)cccc1Cl | 5 µg/mL (≈ 12.5 µM) | 8 µg/mL (≈ 20 µM) | 16 µg/mL (≈ 39.9 µM) | 2 µg/mL (≈ 4.99 µM) |  | 6 µg/mL (≈ 15 µM) | 7 µg/mL (≈ 17.5 µM)
O=C1/C(=C\c2cc3ccccc3nc2Cl)c2ccccc2N1c1c(Cl)cccc1Cl | 5 µg/mL (≈ 11.1 µM) |  |  | 10 µg/mL (≈ 22.1 µM) | > 100 µg/mL |  | 
O=C1/C(=C\c2ccc(Cl)cc2)c2ccccc2N1c1c(Cl)cccc1Cl | 5 µg/mL (≈ 12.5 µM) | > 100 µg/mL | 9 µg/mL (≈ 22.5 µM) | 2 µg/mL (≈ 4.99 µM) | 5 µg/mL (≈ 12.5 µM) |  | 6 µg/mL (≈ 15 µM)
O=C1/C(=C\c2ccccc2[N+](=O)[O-])c2ccccc2N1c1c(Cl)cccc1Cl | 5 µg/mL (≈ 12.2 µM) | > 100 µg/mL | 10 µg/mL (≈ 24.3 µM) | 1 µg/mL (≈ 2.43 µM) |  | 6 µg/mL (≈ 14.6 µM) | 10 µg/mL (≈ 24.3 µM)
Cc1ccc2nc(Cl)c(/C=C3\C(=O)N(c4c(Cl)cccc4Cl)c4ccccc43)cc2c1 |  |  |  | 100 µg/mL (≈ 215 µM) | > 100 µg/mL |  | 
COc1ccc(/C=C2\C(=O)N(c3c(Cl)cccc3Cl)c3ccccc32)cc1 | > 100 µg/mL | > 100 µg/mL | > 100 µg/mL | > 100 µg/mL | > 100 µg/mL |  | > 100 µg/mL
O=C1Cc2ccccc2N1c1c(Cl)cccc1Cl | > 100 µg/mL | > 100 µg/mL | > 100 µg/mL | 100 µg/mL (≈ 360 µM) | > 100 µg/mL |  | > 100 µg/mL
O=C1/C(=C\c2c(Cl)cccc2Cl)c2ccccc2N1c1c(Cl)cccc1Cl | > 100 µg/mL | > 100 µg/mL | > 100 µg/mL | 50 µg/mL (≈ 115 µM) | > 100 µg/mL |  | 100 µg/mL (≈ 230 µM)
O=C1/C(=C\c2ccco2)c2ccccc2N1c1c(Cl)cccc1Cl | 10 µg/mL (≈ 28.1 µM) | > 100 µg/mL | > 100 µg/mL | 5 µg/mL (≈ 14 µM) | > 100 µg/mL |  | 18 µg/mL (≈ 50.5 µM)
COc1ccc(/C=C2\C(=O)N(c3c(Cl)cccc3Cl)c3ccccc32)cc1OC | 5 µg/mL (≈ 11.7 µM) | > 100 µg/mL | > 100 µg/mL | 10 µg/mL (≈ 23.5 µM) | 10 µg/mL (≈ 23.5 µM) |  | < 1 µg/mL
O=C1/C(=C\c2ccccc2Cl)c2ccccc2N1c1c(Cl)cccc1Cl | > 100 µg/mL | 39 µg/mL (≈ 97.3 µM) | > 100 µg/mL | 5 µg/mL (≈ 12.5 µM) | 9 µg/mL (≈ 22.5 µM) | 7 µg/mL (≈ 17.5 µM) | > 100 µg/mL
O=C1/C(=C\c2cccc(Oc3ccccc3)c2)c2ccccc2N1c1c(Cl)cccc1Cl | > 100 µg/mL | > 100 µg/mL | 24 µg/mL (≈ 52.4 µM) | 5 µg/mL (≈ 10.9 µM) | 100 µg/mL (≈ 218 µM) | 6 µg/mL (≈ 13.1 µM) | 10 µg/mL (≈ 21.8 µM)
O=C1/C(=C\c2ccc(O)cc2)c2ccccc2N1c1c(Cl)cccc1Cl | 2 µg/mL (≈ 5.23 µM) | 33 µg/mL (≈ 86.3 µM) | 30 µg/mL (≈ 78.5 µM) | 2 µg/mL (≈ 5.23 µM) | 20 µg/mL (≈ 52.3 µM) |  | 25 µg/mL (≈ 65.4 µM)
O=C1/C(=C\c2cccc3ccccc23)c2ccccc2N1c1c(Cl)cccc1Cl | > 100 µg/mL | > 100 µg/mL | > 100 µg/mL | > 100 µg/mL | > 100 µg/mL |  | 10 µg/mL (≈ 24 µM)
O=C1/C(=C\c2ccc(F)cc2)c2ccccc2N1c1c(Cl)cccc1Cl | 5 µg/mL (≈ 13 µM) | 38 µg/mL (≈ 98.9 µM) | 13 µg/mL (≈ 33.8 µM) | 5 µg/mL (≈ 13 µM) | 9 µg/mL (≈ 23.4 µM) |  | 8 µg/mL (≈ 20.8 µM)
O=C1/C(=C\c2cccc(Br)c2)c2ccccc2N1c1c(Cl)cccc1Cl | 5 µg/mL (≈ 11.2 µM) | 8 µg/mL (≈ 18 µM) | 19 µg/mL (≈ 42.7 µM) | 2 µg/mL (≈ 4.49 µM) | 5 µg/mL (≈ 11.2 µM) | 7 µg/mL (≈ 15.7 µM) | 7 µg/mL (≈ 15.7 µM)
CN(C)c1ccc(/C=C2\C(=O)N(c3c(Cl)cccc3Cl)c3ccccc32)cc1 | > 100 µg/mL | > 100 µg/mL | > 100 µg/mL | 15 µg/mL (≈ 36.6 µM) | > 100 µg/mL |  | < 1 µg/mL
